Data set [1] has as its target T1, RAF1 with HSP90β and CDC37 (Homo sapiens, UniProt P08238+Q16543).
T1 construct: host or cells: E. coli for HSP90β and CDC37
Kind of data set: HSP90β/CDC37 heterocomplex in vitro kinase assay with RAF1. Format: biochemical. Conditions: purified recombinant RAF1, HSP90β and CDC37. The procedure: HEK293T cells were transfected with 1 of 420 different protein kinases, treated with 10 μM KBU2046 (N=5 replicates) or vehicle control (N=5) for three days, and LUMIER assays performed. The N=17 kinases that gave significant findings (Student's t-test <0.05) in the same direction in each of two separate experiments are depicted. Each separate treatment and kinase condition in each of two separate experiments was conducted in replicates of N=5. […] FIGS. 6c and 6d show the results of the wound healing assay. PC3 cells were transfected with siRNA targeting RAF1 (si-Raf1) or non-targeting siRNA (si-control), treated with KBU2046 or vehicle as above, and RAF1 protein measured by Western blot (c) and effects upon wound healing measured (d). […] Purified recombinant HSP90β, CDC37, and RAF1 were combined with KBU2046, as indicated, incubated in an in vitro kinase assay for the indicated times, and Western blot for RAF1-Ser^338 phosphorylation performed. FIGS. 6f and 6g show the effect on HSP90β/CDC37 heterocomplex formation and function in vitro. Purified recombinant HSP90β, CDC37, RAF1, SGK3 or MAP3K6 were combined and treated with KBU2046 or vehicle control, as indicated, incubated in an in vitro kinase assay for the indicated times, and Western blot performed, as denoted. Experiments were repeated at separate times at least once, with similar results. […]

The subject of data set [2] is 442 kinases, including 400 distinct parental kinases plus mutants. The data set is described as follows: KINOMEscan assay (Ambit Biosciences). The format is binding. The conditions noted are these: tested at 10 μM. From the text: Kinase assay system #1. The KINOMEscan™ assay (Ambit Biosciences). This assay evaluates 442 kinases, including 400 distinct parental kinases plus mutants known to alter activity or responsiveness. It does so in the context of an assay that measures the ability of putative inhibitors to inhibit binding of bacterial purified kinase to immobilized phospho-acceptor protein substrate. This approach has been successfully to identify kinase interactions of several small molecule kinase inhibitors (Fabian, M. A. et al., Nat Biotechnol 23, 329-36 (2005); and Karaman, M. W. et al., Nat Biotechnol 26, 127-32 (2008)). KBU2046 was tested at 10 μM. […] There were two initial false positives (for a false positive rate of 0.4%), that were subsequently found to be negative in a dedicated follow up analysis. Specific and important negative findings include MKK4, p38 MAPK (α, β, γ and δ isoforms) and RAF1. Conclusions: there was no evidence that KBU2046 inhibits kinase function by competing for phospho-acceptor binding.

Data set [3] has as its system client protein binding to CDC37/HSP90β heterocomplexes. Kind of data set: Modified LUMIER assay. The format is cell-based. As to the method:
(§1) HEK293T cells were transfected with 1 of 420 different protein kinases, treated with 10 μM KBU2046 (N=5 replicates) or vehicle control (N=5) for three days, and LUMIER assays performed. The N=17 kinases that gave significant findings (Student's t-test <0.05) in the same direction in each of two separate experiments are depicted. Each separate treatment and kinase condition in each of two separate experiments was conducted in replicates of N=5. […] FIGS. 6c and 6d show the results of the wound healing assay. PC3 cells were transfected with siRNA targeting RAF1 (si-Raf1) or non-targeting siRNA (si-control), treated with KBU2046 or vehicle as above, and RAF1 protein measured by Western blot (c) and effects upon wound healing measured (d). […] Purified recombinant HSP90β, CDC37, and RAF1 were combined with KBU2046, as indicated, incubated in an in vitro kinase assay for the indicated times, and Western blot for RAF1-Ser^338 phosphorylation performed. FIGS. 6f and 6g show the effect on HSP90β/CDC37 heterocomplex formation and function in vitro. Purified recombinant HSP90β, CDC37, RAF1, SGK3 or MAP3K6 were combined and treated with KBU2046 or vehicle control, as indicated, incubated in an in vitro kinase assay for the indicated times, and Western blot performed, as denoted. Experiments were repeated at separate times at least once, with similar results.
(§2) To examine whether this is associated with an altered signature of bound client kinase proteins, a modified LUMIER assay (Taipale, M. et al., Cell 150, 987-1001 (2012)) was performed to detect KBU2046-induced changes in client protein binding to CDC37/HSP90β heterocomplexes in intact cells. […] These findings are in contrast to classical inhibitors of HSP90 function which have been shown, through this same assay, to affect the binding of the majority client kinase proteins (Taipale, M. et al., Cell 150, 987-1001 (2012)).
(§3) LUMIER assay. The LUMIER assay was performed as described (Taipale, M. et al., Cell 150, 987-1001 (2012)).
(§4) Experiments had N=5 vehicle treated control plus N=5 KBU2046 treated separate wells of cells. Those yielding a t-test p value <0.05 in experiment #1, or those whose values were at or below baseline, were repeated in experiment #2. […] Of 420 kinase proteins tested, 17 (4%) met these criteria (FIG. 6a). For these 17 kinases, the experiment was repeated except that HEK293T cells were treated with TGFβ for the last 24 hrs of the 3 day incubation (FIG. 6b).

Data set [4] addresses T2, client protein binding to CDC37/HSP90β heterocomplexes (Homo sapiens, UniProt P08238+Q16543).
T2 construct: expressed in transfected cells; host or cells: HEK293T
The data set is described as follows: Modified LUMIER assay. Format: cell-based. As to the method: as §1, §2, §3, §4

For data set [5], the system named is human cord blood CD34+ stem cells. The data set is described as follows: Hematopoietic stem cell colony formation assay. Format: cell-based. The conditions noted are these: colonies at 14 days. An excerpt:
FIG. 1a is a schematic flow of probe synthesis and development strategy. […] Values are mean±SEM of a single experiment in replicates of N=4, with similar findings in multiple separate experiments (also N=4). […] Values are mean±SEM of a single experiment in replicates of N=24, with similar findings in a separate experiment (also N=24). *Denotes Student's t test P value <0.05, compared to controls. […] Values are mean±SEM from N>2 separate experiments, each in replicates of N=3. […] Values are the mean±SD number of total, CFU-GM, CFU-GEMM or BFU-E colonies at 14 days after treatment with KBU2046, from a single experiment in replicates of N=2. […] Values are the mean±SD of a single experiment, with similar results seen in a separate experiment, both in replicates of N=2.
Hematopoietic Stem Cell Colony Formation Assay. Fourteen-day colony formation assays were conducted as described (Bergan, R. et al., Blood 88, 731-41 (1996)), using human cord blood CD34+ stem cells (AllCells Inc.), using MethoCultExpress™ colony growth media (StemCell Technologies Inc.), performed in replicates of N=2.

The structures appear in SMILES notation.

T2 sequence (P08238 2-724): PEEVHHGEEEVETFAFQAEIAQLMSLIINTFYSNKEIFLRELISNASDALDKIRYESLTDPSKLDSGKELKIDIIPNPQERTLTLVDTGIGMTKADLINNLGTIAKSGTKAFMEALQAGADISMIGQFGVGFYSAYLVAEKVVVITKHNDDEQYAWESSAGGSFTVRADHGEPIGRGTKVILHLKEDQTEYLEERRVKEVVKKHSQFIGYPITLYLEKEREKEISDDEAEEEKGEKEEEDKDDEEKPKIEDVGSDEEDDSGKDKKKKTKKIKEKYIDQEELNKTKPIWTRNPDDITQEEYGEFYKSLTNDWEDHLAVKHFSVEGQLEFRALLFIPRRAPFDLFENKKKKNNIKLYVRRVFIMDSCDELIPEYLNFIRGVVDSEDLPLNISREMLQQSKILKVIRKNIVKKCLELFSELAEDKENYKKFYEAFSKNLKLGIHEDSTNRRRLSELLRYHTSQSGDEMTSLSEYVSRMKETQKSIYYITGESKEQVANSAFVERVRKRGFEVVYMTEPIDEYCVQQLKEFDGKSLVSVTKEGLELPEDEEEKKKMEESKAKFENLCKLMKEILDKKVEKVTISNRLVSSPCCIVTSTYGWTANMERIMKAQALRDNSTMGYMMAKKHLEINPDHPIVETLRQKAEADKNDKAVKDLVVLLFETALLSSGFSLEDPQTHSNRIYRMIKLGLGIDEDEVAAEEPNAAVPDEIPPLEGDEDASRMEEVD
T2 sequence (Q16543 whole entry): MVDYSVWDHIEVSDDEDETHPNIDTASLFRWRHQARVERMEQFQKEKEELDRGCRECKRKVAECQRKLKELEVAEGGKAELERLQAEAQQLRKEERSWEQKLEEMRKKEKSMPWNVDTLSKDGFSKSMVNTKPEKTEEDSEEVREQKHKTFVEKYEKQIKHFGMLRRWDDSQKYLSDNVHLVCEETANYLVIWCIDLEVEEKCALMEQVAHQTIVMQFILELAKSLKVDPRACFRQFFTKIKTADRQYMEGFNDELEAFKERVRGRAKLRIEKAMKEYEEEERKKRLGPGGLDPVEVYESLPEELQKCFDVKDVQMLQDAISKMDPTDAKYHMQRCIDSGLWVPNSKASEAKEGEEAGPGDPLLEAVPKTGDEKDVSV
T1 sequence (P08238 whole entry): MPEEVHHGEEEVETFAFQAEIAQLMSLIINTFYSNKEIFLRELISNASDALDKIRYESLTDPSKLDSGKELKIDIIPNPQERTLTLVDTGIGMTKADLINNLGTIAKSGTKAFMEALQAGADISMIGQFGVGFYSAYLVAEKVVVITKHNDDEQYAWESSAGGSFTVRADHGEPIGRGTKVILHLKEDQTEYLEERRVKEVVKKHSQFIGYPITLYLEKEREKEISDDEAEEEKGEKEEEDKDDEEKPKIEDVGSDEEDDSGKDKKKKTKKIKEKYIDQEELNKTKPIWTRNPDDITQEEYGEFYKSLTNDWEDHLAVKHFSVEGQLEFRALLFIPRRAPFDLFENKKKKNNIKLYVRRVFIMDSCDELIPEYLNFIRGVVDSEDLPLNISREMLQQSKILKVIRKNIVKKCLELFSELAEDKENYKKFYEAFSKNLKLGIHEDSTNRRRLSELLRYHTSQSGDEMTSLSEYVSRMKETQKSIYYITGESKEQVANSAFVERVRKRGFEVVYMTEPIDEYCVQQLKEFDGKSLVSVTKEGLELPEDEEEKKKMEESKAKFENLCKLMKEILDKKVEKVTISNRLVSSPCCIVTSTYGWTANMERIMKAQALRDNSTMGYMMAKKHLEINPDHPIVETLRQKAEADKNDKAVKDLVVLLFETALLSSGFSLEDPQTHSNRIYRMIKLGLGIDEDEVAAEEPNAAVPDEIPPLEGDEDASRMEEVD
T1 sequence (Q16543 whole entry): as the sequence (Q16543 whole entry) above

On to `O=C1c2ccccc2OCC1c1ccc(F)cc1` (racemic) [KBU2046, (±)-3(4-fluorophenyl)chroman-4-one], for which the “phosphorylation of RAF1 Ser338 activation motif” value in data set [1] is “decreased phosphorylation of RAF1's Ser338 activation motif”. Further, the “inhibition of kinase binding to immobilized phospho-acceptor substrate” value in data set [2] is on record as “completely negative”. Also, in data set [3] (10 μM, 3 days), the “number of kinases with decreased binding” value is recorded as 7 and the “number of kinases with increased binding” value is listed as 10. Further, the “share of kinases whose binding was significantly changed” value in data set [3] (of 420 kinase proteins) worked out at 4%. Moreover, the “number of kinases whose binding was significantly changed” value in data set [3] (of 420 kinase proteins, 10 μM, 3 days) is 17. Moreover, in data set [4] (TGFβ treated cells), the “RAF1 binding to complexes” value was “decreased binding”, the “RIPKI binding to complexes” value is on record as “decreased” and the “SGK3 binding to complexes” value is listed as “increased”. The “MAP3K6 binding to complexes” value in data set [4] (intact cells) was “increases MAP3K6 binding to complexes”. Further, in data set [5], the “toxicity to human bone marrow stem cells” value is “not toxic”.
